Values after ≈ are worked out from the molar mass of the structure shown.
Key:
[1] = system: Bacillus subtilis; experiment: Antimicrobial activity against Bacillus subtilis ATCC 6633 by agar plate diffusion assay; type: functional
[2] = system: Staphylococcus aureus; experiment: Antimicrobial activity against Staphylococcus aureus 134/94 by agar plate diffusion assay; type: functional
[3] = system: Enterococcus faecium; experiment: Antimicrobial activity against Enterococcus faecium 1528 by agar plate diffusion assay; type: functional
[4] = system: Mycobacterium sp.; experiment: Antimicrobial activity against Mycobacterium sp. SG 987 by agar plate diffusion assay; type: functional
[5] = system: Candida albicans; experiment: Antimicrobial activity against Candida albicans by agar plate diffusion assay; type: functional
[6] = system: L929; experiment: Cytotoxicity against mouse L929 cells after 72 hrs by methylene blue staining; type: cell-based; conditions: L929, 72 h
[7] = system: K562; experiment: Cytotoxicity against human K562 cells after 72 hrs; type: functional, cell-based; conditions: K562, 72 h
[8] = system: HeLa; experiment: Cytotoxicity against human HeLa cells by methylene blue staining; type: functional, cell-based

## CC[C@@H]1[C@@H](C)O[C@@](OC)([C@@H](C)[C@H](O)[C@H](C)[C@H]2OC(=O)/C=C/C=C/[C@H](C)[C@@H]([C@@H](C)[C@@H](O)[C@H](C)[C@@]3(OC)C[C@@H](O[C@H]4C[C@H](O)[C@H](O)[C@H](C)O4)[C@H](CC)[C@@H](C)O3)OC(=O)/C=C/C=C/[C@@H]2C)C[C@H]1O[C@H]1C[C@H](O)[C@H](O)[C@H](C)O1
[1]
  inhibition zone (IZ): 23 mm
[2]
  inhibition zone (IZ): 13 mm
[3]
  inhibition zone (IZ): 17 mm
[4]
  inhibition zone (IZ): 15 mm
[5]
  inhibition zone (IZ): 0 mm
[6]
  IC50: 2.4 µg/mL (≈ 2.28 µM)
[7]
  IC50: 1.3 µg/mL (≈ 1.23 µM)
[8]
  IC50: 2.2 µg/mL (≈ 2.09 µM)

From ChEMBL document CHEMBL1151303, “New macrodiolide antibiotics, 11-O-monomethyl- and 11, 11'-O-dimethylelaiophylins, from Streptomyces sp. HKI-0113 and HKI-0114” (J Nat Prod, 1998)
